{"source": "patent US20150307573A1", "about": "“CYLINDRINS AS ETIOLOGIC AGENTS OF AMYLOID DISEASES” (The Regents of the University of California, priority 2012, published 2015)", "molecules": {"B1": {"name": "K11VV2L cylindrin peptide (KLKVLGDVIEV), oligomeric solution (peptide)", "peptide": "KLKVLGDVIEV", "notes": "Forms hexameric oligomers (native MS, crystal structure 3SGP); also called single segment; alphaB crystallin residues 90-100 mutant V91L"}, "B2": {"name": "SOD1-derived peptide KVKVWGSIKGL, SOD1(29-39) P29K (peptide)", "peptide": "KVKVWGSIKGL", "notes": "Open-ended oligomer (corkscrew), 16 strands per turn, any number of peptide units; also called SOD1 cylindrin; kv11"}, "B3": {"name": "K11V-TR tandem repeat cylindrin peptide (tandem repeat of K11VV2L), oligomeric solution (peptide)", "peptide": "GKLKVLGDVIEVGGKLKVLGDVIEV", "notes": "Trimer of 25-residue chains (SEC, native MS, crystal structure 3SGR); also called K11VV2L-TR; tandem repeat segment"}}, "key": {"[1]": {"test": "Membrane leakage (liposome calcein dye-release) experiments", "assay_type": "biochemical", "conditions": "for maximum leakage (calcein release): 5, 20, 50 μM peptide, up to 30 hours; for liposome integrity / dye release: FIG. 8", "procedure": "Calcein-containing LUVs were prepared as described previously (19), with minor modifications. 1-palmitoyl-2-oleoyl-sn-glycero-3-phosphocholine (POPC) and 1-palmitoyl-2-oleoyl-sn glycero-3-phospho-L-glycerol (POPG) were obtained from Avanti Polar Lipids (Alabaster, Ala.). Mixtures of POPC and POPG in a 7:3 molar ratio were dissolved in 1:1 chloroform:methanol. The solvent was evaporated under dry nitrogen gas to yield a lipid film that was further dried under vacuum for at least 24 hours to remove any residual organic solvent. The film was then hydrated in 70 mM calcein (Sigma Aldrich, St. Louis, Mo.) and 10 mM Tris-HCl (pH 7.4) at a lipid concentration of 5 mM. The suspensions were subjected to 10 freeze-thaw cycles of temperatures of −80 and 50° C., followed by extrusion through two 0.2 μm pore size filters (Whatman, Florham Park, N.J.). Non-encapsulated calcein was separated from calcein-filled LUVs by size exclusion using a Sephadex G-75 (GE Healthcare, Piscataway, N.J.) equilibrated in buffer (10 mM Tris-HCl pH 7.4, 100 mM sodium chloride). The calcein-containing LUVs were concentrated to 3-5 mM and stored at 4° C. Phospholipid content and concentrations of the LUVs were determined by RP-HPLC using 100% Methanol and 100 mM TEAC (tetraethylammonium chloride) pH 7.8 as the solvent and a C18 column. Diameter of LUVs were determined using a Microtrac UPA 150 (York, Pa.). […] LUVs were used for experiments within 5 days of preparation.\nPure, lyophilized K11V-TR and K11VV2L-TR peptides were solubilized in water. Three different stock solutions were made at concentrations of 0.2, 0.8, and 2 mM. 5 uL of each peptide stock solution was added to a well containing 195 uL of 7:3 calcein-containing POPC:POPG LUVs in a buffer (10 mM Tris-HCL pH 7.4, 100 mM sodium chloride). Dye leakage was measured using a SpectraMax5 (Molecular Devices, Sunnyvale, Calif.) at 485 nm excitation and a 535 nm emission. Measurements were taken every 10 minutes for 30 hours. Each well contains a final LUV concentration of 100 μM with final K11V-TR and K11VV2L-TR construct concentrations of 5, 20, and 50 μM. Synthetic human Islet Amyloid Polypeptide (hIAPP) residues 8-37, purchased from CS-Bio (Menlo Park, Calif.), was used as a positive control; since hIAPP has been previously shown to interact and disrupt membranes (15, 16). Lyophilized hIAPP was dissolved in 100% hexafluoro-2-propanol (HFIP) and put under vacuum to evaporate the HFIP. hIAPP was then reconstituted in water at 0.2 mM, filtered using a 0.2 μm filter, and added to six wells containing 100 μM Calcein-containing LUVs to a final concentration of 5 μM hIAPP. Fluorescence at a given time point was normalized as described previously (20), using the equation: Fnormalized=(Ft−Fmin)/(Fmax−Fmin) Ft is the measured fluorescence intensity, Fmin the fluorescence of 100 μM calcein-containing LUVs alone, and Fmax is the maximum fluorescence determined by incubation of 100 μM LUVs in the presence of 0.5% Triton X-100."}, "polyclonal antibody A11": {"system": "polyclonal antibody A11", "test": "Immuno-dot blot with oligomer-specific antibody A11", "assay_type": "binding", "procedure": "(§1) Briefly, a small aliquot of cylindrin peptide samples, at a concentration of a few mg/mL, were spotted onto a nitrocellulose membrane (Trans-Blot, Bio-Rad, Hercules, Calif.). After blocking with 10% fat free milk in TBST buffer (50 mM Tris, 150 mM NaCl, 0.05% Tween20), the membranes were incubated with polyclonal antibody or monoclonal antibody (˜1:250 dilution in 5% fat free milk, TBST buffer) at room temperature for 1 hour. The membranes were washed three times in TBST buffer before incubating with anti-rabbit HRP-linked antibody (1:5000 dilution in 5% fat free milk, TBST buffer) (Invitrogen, Carlsbad, Calif.) at room temperature for 1 hour. After washing the membranes three times in TBST buffer, the films were developed following the protocol as described in the Kit (Thermo Scientific Pierce ECL Western Blotting Substrate, #32209). Positive controls for A11 and OC were prefibrillar oligomers and fibrils, respectively (14)."}, "OC antibody": {"system": "OC antibody", "test": "Immuno-dot blot with fibril-specific antibodies OC", "assay_type": "binding", "procedure": "as §1"}, "in vitro": {"test": "in vitro", "conditions": "human (HeLa, HEK293, SH-SY5Y); rat (PC-12)"}, "[2]": {"system": "HeLa, HEK293, PC-12 and SH-SY5Y cells"}, "[3]": {"system": "Hela; ES derived motor neurons (GFP+)", "test": "Toxicity assay of SOD1 cylindrins (MTT, visual inspection of GFP+ neuron morphologies)", "assay_type": "cell-based"}, "[4]": {"target": "the molecule itself", "test": "native nanoelectrospray mass spectrometry; self-association of identical chains", "procedure": "The cylindrin peptide abbreviation (see Table 1) is labeled for the respective mass spectrum in the upper right corner of the inset. (A) Mass spectrum of cylindrin peptide, K11VV2L dissolved directly in 200 mM ammonium acetate buffer. Expansion of the hexameric oligomers with n-1 and n-2 dissociation products (see for review (13)), shown in inset. […] The n-1 (pentamer) and n-2 (tetramer) dissociated species are located under the respective label, corresponding to ions with +4 and +3 charge states, respectively. The 1231.76 ion corresponds to the K11VV2L peptide chain with a +1 charge state. (B) Native mass spectrum of K11V-TR purified by size exclusion chromatography (see methods for details). […] The labeled +2 and +6 charge state ions correspond to one and four peptide chains, respectively. […]\nOne to five milligrams of lyophilized peptide was dissolved in 1 mL of water and filtered through a 0.22 or 0.45 μm Centrex MF filter (Whatman, Florham Park, N.J.). […] Absorbance at 220 nm and 280 nm were recorded using a Waters 2487 dual λ absorbance detector (Waters, Milford, Mass.). Protein standards were monitored by absorbance at 280 nm, and cylindrin peptides monitored by absorbance at 220 nm."}, "[5]": {"target": "the molecule itself", "test": "X-ray crystal structure; self-association of identical chains", "procedure": "The SOD1-derived peptide […] (SEQ ID NO:61) was crystallized and data collection was performed as follows: The peptide was crystallized via hanging-drop vapor diffusion at 18° C. The peptide was dissolved at 50 mg/mL in 50 mM Tris, then was mixed 1:1 with the reservoir solution: 0.2M Na Citrate pH 5, 13% PEG 6000. The peptide grew into needle-shaped crystals in 2-3 days. For data collection, hundreds of crystals were mounted because of their quick decay. However, two larger crystals were able to be used to collect complete data sets, by diffracting from several points along the length of the crystals. Diffraction from iodine-soaked crystals was used to obtain phases by SIRAS."}}, "note": "Like-named read-outs stand apart in the source and are kept apart here. Where no end group is shown, it is not given here."}
{"molecule": "GKVKVLGDVIEVGGKVKVLGDVIEV [K11V-TR (wild-type)]", "values": [{"measurement": "maximum leakage (calcein release)", "setting": "[1]; 100 μM LUVs", "value": 10, "unit": "%"}]}
{"molecule": "KLKVLGDVIEV [Peptide K11VV2L]", "values": [{"measurement": "recognition by A11 antibody", "setting": "polyclonal antibody A11", "value": "recognized by A11"}]}
{"molecule": "GKLKVLGDVIEVGGKLKVLGDVIEV [K11V-TR fibrils] (not fully specified)", "values": [{"measurement": "recognition by OC antibody", "setting": "OC antibody", "value": "recognized only by the OC antibody"}, {"measurement": "recognition by OC antibody", "setting": "OC antibody; listed as fibrils of K11V-TR", "value": "immunoreactive"}, {"measurement": "recognition by A11 antibody", "setting": "polyclonal antibody A11", "value": "recognized only by the OC antibody"}]}
{"molecule": "hIAPP8-37: Synthetic human Islet Amyloid Polypeptide residues 8-37, positive control (ATQRLANFLVHSSNNFGAILSSTNVGSNTY; ends and bridges not checked; UniProt P10997 41-70, looked up, fragment) [reference compound]", "values": [{"measurement": "leakage (calcein release)", "setting": "[1]; 5 μM positive control, 100 μM LUVs", "value": "up to 60%"}, {"measurement": "liposome integrity / dye release", "setting": "[1]", "value": "clearly diminished liposome integrity leading to dye release"}]}
{"molecule": "H-GKLKWLGDVIEVGGKLKWLGDVIEV-OH [Peptide K11VV4W-TR]", "values": [{"measurement": "viability at 24 h, 100 µM", "setting": "in vitro", "value": "~100", "unit": "%"}]}
{"molecule": "GKLKVLGDVIEVGGKLKVLGDVIEV [Peptide K11V-TR]", "values": [{"measurement": "maximum leakage (calcein release)", "setting": "[1]; 100 μM LUVs", "value": 10, "unit": "%"}, {"measurement": "liposome integrity / dye release", "setting": "[1]", "value": "did not exhibit this trend"}, {"measurement": "recognition by A11 antibody", "setting": "polyclonal antibody A11", "value": "recognized by A11"}, {"measurement": "cell toxicity", "setting": "[2]; different peptide concentrations, HEK293, HeLa, PC12, SH-SY5Y, FIG. 7", "value": "concentration dependent cell toxicity"}, {"measurement": "cell toxicity (cell viability)", "setting": "[2]; final concentration 100 μM, four mammalian cell lines, FIG. 1F", "value": "toxic"}]}
{"molecule": "KVKVWGSIGKL [KVKVWGSIKGL]", "values": [{"measurement": "toxicity to cultured cells", "setting": "[3]; peptide (cylindrin)", "value": "toxic"}, {"measurement": "toxicity to cultured cells", "setting": "[3]; peptide amyloid-like fibrils", "value": "non-toxic"}]}
{"molecule": "cylindrin: six-stranded anti-parallel barrel oligomer of K11V (KVKVLGDVIEV)", "values": [{"measurement": "recognition by A11 antibody", "setting": "polyclonal antibody A11", "value": "recognizes"}]}
{"molecule": "GDVIEV [G6V fibrils]", "values": [{"measurement": "toxicity of fibrils", "setting": "[2]; fibrils, in contrast to oligomeric solutions", "value": "no toxicity"}]}
{"molecule": "B1", "values": [{"measurement": "binding result", "setting": "[4]", "value": "binds"}]}
{"molecule": "B2", "values": [{"measurement": "binding result", "setting": "[5]", "value": "binds"}]}
{"molecule": "B3", "values": [{"measurement": "binding result", "setting": "[4]", "value": "binds"}]}
